Test results taken from patent US20260176289A1, “SMALL MOLECULE INHIBITORS OF KRAS PROTEINS” (Merck Sharp & Dohme LLC, priority 2022, published 2026).
Values belong to the compound of their own block, whether it stands above or below them.

How the values were obtained:
KRAS-G12D = KRAS-G12D (Homo sapiens, UniProt P01116, G12D); assay: SOS-catalyzed nucleotide exchange assay (Procedure A, TR-FRET), KRAS-G12D; assay type: biochemical; details: nucleotide exchange, read-out: KRAS G12D GNE IC50
Method in brief: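 Signal ratio (520/495 nm, excitation 340 nm) reports Bodipy-GDP retention on biotinylated RAS after SOS-catalyzed exchange with 3 mM GTP. SOS was 40 nM, except 160 nM for G12V. Room-temperature exchange lasted 60 min (90 min for G12V), following a 60 min compound preincubation.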

SW620 cells = assay: Cellular phospho-ERK assay, SW620 cells (homozygous KRAS-G12V); assay type: cell-based; details: Homo sapiens, SW-620, 2 hours compound incubation, read-out: SW620 pERK IC50
Method in brief: (§1)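 Inhibition of ERK phosphorylation was determined after treating attached cells with compound for 2 h; top concentration 30 μM, serial 1:3 dilution. Each well's p-ERK:total ERK ratio, read by SureFire Ultra, was fitted with a four-parameter model for IC50.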

KRAS-G12V = KRAS-G12V (Homo sapiens, UniProt P01116, G12V); assay: SOS-catalyzed nucleotide exchange assay (Procedure A, TR-FRET), KRAS-G12V; assay type: biochemical; details: nucleotide exchange, read-out: KRAS G12V GNE IC50
KRAS-G12V, sequence (P01116 with tags, fused parts or gaps isoform P01116-2 G12V): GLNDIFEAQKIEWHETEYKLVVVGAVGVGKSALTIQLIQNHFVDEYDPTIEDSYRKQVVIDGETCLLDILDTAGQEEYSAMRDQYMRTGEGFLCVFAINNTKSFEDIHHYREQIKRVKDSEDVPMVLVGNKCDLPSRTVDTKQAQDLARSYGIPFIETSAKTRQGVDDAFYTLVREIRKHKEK
Method in brief: (§2)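 TR-FRET 520/495 nm ratio read after SOS-driven exchange of Bodipy-GDP for unlabeled GTP (3 mM) on biotinylated RAS bound to Tb-streptavidin. There was a 60 min compound preincubation, RT. Final RAS/SOS and reaction times: G12C 3 nM/40 nM; WT 1 nM/40 nM; NRAS 1.25 nM/40 nM, each 60 min. G12V was 1.25 nM/160 nM, 90 min.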

[1] = target: KRAS-G12C (C51S/C80L/C118S) (Homo sapiens, UniProt P01116, C118S/C51S/C80L/G12C); assay: SOS-catalyzed nucleotide exchange assay (Procedure A, TR-FRET), KRAS-G12C; assay type: biochemical; details: nucleotide exchange, Procedure A; read-out: KRAS G12C GNE IC50
KRAS-G12C (C51S/C80L/C118S), sequence (P01116 with tags, fused parts or gaps isoform P01116-2 G12C/C51S/C80L/C118S): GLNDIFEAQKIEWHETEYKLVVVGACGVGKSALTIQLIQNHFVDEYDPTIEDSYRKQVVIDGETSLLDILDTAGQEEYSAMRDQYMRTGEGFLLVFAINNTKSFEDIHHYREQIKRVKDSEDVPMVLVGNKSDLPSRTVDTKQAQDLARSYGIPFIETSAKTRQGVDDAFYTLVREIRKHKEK
Method in brief: as §2

HRAS = HRAS (Homo sapiens, UniProt P01112); assay: SOS-catalyzed nucleotide exchange assay (Procedure A, TR-FRET), HRAS; assay type: biochemical; details: read-out: HRAS GNE IC50
HRAS, sequence (P01112 with tags, fused parts or gaps): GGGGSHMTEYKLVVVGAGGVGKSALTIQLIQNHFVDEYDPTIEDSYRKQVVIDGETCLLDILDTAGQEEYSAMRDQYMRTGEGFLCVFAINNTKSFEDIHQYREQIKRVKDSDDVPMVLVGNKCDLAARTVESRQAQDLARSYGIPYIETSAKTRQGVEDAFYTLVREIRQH
Source text: Procedure for SOS-Catalyzed Nucleotide Exchange Assay for KRAS-WT, G12C/D/V, G13D, HRAS, and NRAS (Procedure A)
Recombinant KRAS-G12C protein used in this assay has an additional triple mutation (C51S/C80L/C118S). Whereas KRAS-WT, G12D/V, G13D, HRAS and NRAS are in context of their WT protein sequence background. Specifically, the SOS-catalyzed nucleotide exchange assay utilizes a preformed TR-FRET complex containing a specific biotinylated RAS protein (KRAS-WT, G12C/V/D, G13D, HRAS, NRAS; described above) with Bodipy-GDP, and Terbium-streptavidin. Compounds are preincubated with this complex for 60 minutes. Subsequently, recombinant human SOS protein and unlabeled GTP are added to initiate the exchange reaction. Small molecule inhibitors stabilize the Bodipy-GDP complex whereas the untreated protein rapidly exchanges Bodipy-GDP for unlabeled GTP resulting in reduced TR-FRET signal.
To assemble the preformed TR-FRET complexes, each biotinylated RAS protein is diluted to 2 μM in an EDTA Buffer (20 mM HEPES pH 7.5, 50 mM sodium chloride, 10 mM EDTA, and 0.01% Tween) and incubated at room temperature for one hour. This mixture is then further diluted to 90 nM in an Assay Buffer (20 mM HEPES pH 7.5, 150 mM sodium chloride, 10 mM magnesium chloride, and 0.005% Tween) containing 15 nM of Terbium-Streptavidin (Invitrogen, catalog #PV3577) and 900 nM of Bodipy-GDP (Invitrogen, catalog #G22360) and incubated at room temperature for six hours. It should be noted that this preformed TR-FRET complex for each of the RAS protein were made ahead of time, aliquoted and stored at −80° C. until the day of the experiment.
Each test compound (10 mM stock in DMSO) is diluted in DMSO to make a final-10-point, 3-fold dilution and is acoustically dispensed into a 384-well assay plate (Corning, catalog #3820) using an Echo 550 (Labcyte). Each well of the assay plate receives 3 μL of a specific 3×RAS preformed TR-FRET complex and 3 μL of Assay Buffer and is incubated at room temperature for 60 minutes (preincubation time). Each well then receives 3 μL of 3×recombinant human SOS protein and GTP (Sigma, G8877) in Assay Buffer and is incubated at room temperature for 30 minutes (G13D), 60 minutes (KRAS WT/G12C/D, H/NRAS) or 90 minutes for G12V. The final reaction in each well of 9 μL consists of 3 mM GTP, specific Ras and SOS proteins in the following concentrations: KRAS-G12C/SOS=3 nM/40 nM, KRAS-WT and G12D/SOS=1 nM/40 nM, KRAS-G12V/SOS=1.25 nM/160 nM. KRAS-G13D/SOS=1.25 nM/0 nM, HRAS and NRAS=1.25 nM/40 nM.
The time-resolved fluorescence resonance energy transfer (TR-FRET) signal is measured on an Envision (PerkinElmer) plate reader: Excitation filter=340 nm; emission 1=495 nm; emission2=520 nm; dichroic mirror=D400/D505; delay time=[…]. The signal of each well is determined as the ratio of the emission at 520 nm to that at 495 nm. Percent effect of each well is determined after normalization to control wells containing DMSO (no effect) or a saturating concentration of inhibitor (max effect). The apparent effect as a function of compound concentration is fit to a four-parameter logistic equation.

KRAS-WT = KRAS-WT (Homo sapiens, UniProt P01116); assay: SOS-catalyzed nucleotide exchange assay (Procedure A, TR-FRET), KRAS-WT; assay type: biochemical; details: nucleotide exchange, read-out: KRAS WT GNE IC50
KRAS-WT, sequence (P01116 with tags, fused parts or gaps isoform P01116-2): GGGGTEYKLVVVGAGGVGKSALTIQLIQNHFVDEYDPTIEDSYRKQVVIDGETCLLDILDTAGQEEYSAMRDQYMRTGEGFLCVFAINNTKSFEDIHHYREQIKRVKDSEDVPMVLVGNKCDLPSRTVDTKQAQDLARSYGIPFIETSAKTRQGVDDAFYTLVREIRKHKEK
Method in brief: as §2

AsPC-1 cells = assay: Cellular phospho-ERK assay, AsPC-1 cells (homozygous KRAS-G12D); assay type: cell-based; details: Homo sapiens, ASPC1, 2 h, 2 hours compound incubation, read-out: AsPC1 pERK IC50
Method in brief: as §1

KRAS-G13D = KRAS-G13D (Homo sapiens, UniProt P01116, G13D); assay: SOS-catalyzed nucleotide exchange assay (Procedure A, TR-FRET), KRAS-G13D; assay type: biochemical; details: nucleotide exchange, Procedure A; read-out: KRAS G13D GNE IC50
KRAS-G13D, sequence (P01116 with tags, fused parts or gaps isoform P01116-2 G13D): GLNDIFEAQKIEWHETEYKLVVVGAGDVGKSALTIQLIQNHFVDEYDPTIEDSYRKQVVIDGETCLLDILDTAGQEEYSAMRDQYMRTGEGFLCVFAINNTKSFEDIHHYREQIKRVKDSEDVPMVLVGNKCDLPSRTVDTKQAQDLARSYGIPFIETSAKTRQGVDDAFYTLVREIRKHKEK

MKN-1 cells = assay: Cellular phospho-ERK assay, MKN-1 cells (amplified wild-type KRAS); assay type: cell-based; details: Homo sapiens, 2 hours compound incubation, read-out: MKN1 pERK IC50
Method in brief: as §1

[2] = target: T1, KRAS G12C (amino acids 1-169) (Homo sapiens, UniProt P01116, G12C); assay: SOS-catalyzed nucleotide exchange assay (Procedure B, BODIPY FL GDP displacement), KRAS G12C; assay type: biochemical; details: read-out: KRAS G12C GNE IC50
T1 construct: made in house; host or cells: E. coli
T1 sequence (P01116 with tags, fused parts or gaps isoform P01116-2 G12C): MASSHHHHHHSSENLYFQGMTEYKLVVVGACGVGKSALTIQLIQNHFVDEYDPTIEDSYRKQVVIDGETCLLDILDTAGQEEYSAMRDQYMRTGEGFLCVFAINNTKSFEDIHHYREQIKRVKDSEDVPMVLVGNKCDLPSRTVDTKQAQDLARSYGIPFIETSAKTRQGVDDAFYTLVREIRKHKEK
Method in brief: (§3)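 Purified BODIPY FL GDP-loaded KRAS (aa 1-169, E. coli-expressed), 2.5 nM, preincubated with compound 1 h at 25° C in Tris pH 7.5/MgCl2 buffer; SOS1 (aa 564-1049) plus GMPPNP then added, 30 min at room temperature. Fluorescence ratio before/after exchange normalized to DMSO and no-SOS1/GMPPNP controls; IC50 by 4-parameter logistic fit.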

[3] = target: T2, KRAS G12D (amino acids 1-169) (Homo sapiens, UniProt P01116, G12D); assay: SOS-catalyzed nucleotide exchange assay (Procedure B, BODIPY FL GDP displacement), KRAS G12D; assay type: biochemical; details: read-out: KRAS G12D GNE IC50
T2 construct: made in house; host or cells: E. coli
T2 sequence (P01116 with tags, fused parts or gaps isoform P01116-2 G12D): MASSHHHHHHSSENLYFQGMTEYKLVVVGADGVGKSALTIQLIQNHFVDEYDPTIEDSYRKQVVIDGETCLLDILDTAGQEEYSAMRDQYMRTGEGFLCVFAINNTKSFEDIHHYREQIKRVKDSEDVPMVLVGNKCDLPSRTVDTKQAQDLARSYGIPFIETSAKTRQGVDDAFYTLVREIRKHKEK
Method in brief: as §3

[4] = target: T3, KRAS WT (amino acids 1-169) (Homo sapiens, UniProt P01116); assay: SOS-catalyzed nucleotide exchange assay (Procedure B, BODIPY FL GDP displacement), KRAS WT; assay type: biochemical; details: read-out: KRAS WT GNE IC50
T3 construct: made in house; host or cells: E. coli
T3 sequence (P01116 with tags, fused parts or gaps isoform P01116-2): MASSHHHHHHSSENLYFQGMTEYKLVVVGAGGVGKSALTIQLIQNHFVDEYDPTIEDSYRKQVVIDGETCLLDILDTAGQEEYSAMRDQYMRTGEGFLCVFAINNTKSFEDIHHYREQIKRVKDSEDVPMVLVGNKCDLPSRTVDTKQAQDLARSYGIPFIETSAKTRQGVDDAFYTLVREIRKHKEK
Method in brief: as §3

[5] = target: T4, KRAS G12V (amino acids 1-169) (Homo sapiens, UniProt P01116, G12V); assay: SOS-catalyzed nucleotide exchange assay (Procedure B, BODIPY FL GDP displacement), KRAS G12V; assay type: biochemical; details: read-out: KRAS G12V GNE IC50
T4 construct: made in house; host or cells: E. coli
T4 sequence (P01116 with tags, fused parts or gaps isoform P01116-2 G12V): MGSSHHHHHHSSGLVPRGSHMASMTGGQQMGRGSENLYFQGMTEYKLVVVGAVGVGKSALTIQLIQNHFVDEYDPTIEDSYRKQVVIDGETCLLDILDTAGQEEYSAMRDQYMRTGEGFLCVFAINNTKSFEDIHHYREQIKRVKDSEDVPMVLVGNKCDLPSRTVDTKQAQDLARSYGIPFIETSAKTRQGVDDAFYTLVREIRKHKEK
Method in brief: as §3

KRAS-G12D, sequence (P01116 with tags, fused parts or gaps isoform P01116-2 G12D): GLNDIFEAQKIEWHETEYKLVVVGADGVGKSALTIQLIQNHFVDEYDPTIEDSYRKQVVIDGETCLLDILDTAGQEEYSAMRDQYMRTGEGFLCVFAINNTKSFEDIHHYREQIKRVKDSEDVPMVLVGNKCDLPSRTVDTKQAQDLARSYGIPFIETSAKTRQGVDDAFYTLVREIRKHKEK

SMILES: C[C@@]1(O)COCCN(c2nc(OC[C@@]34CCCN3C[C@H](F)C4)nc3sc4c(-c5c6c(cc7[nH]ncc57)CCC6C#N)nccc4c23)C1 (stereo partly drawn) [Ex-96, 4-(2-(((2R,7aS)-2-fluorotetrahydro-1H-pyrrolizin-7a(5H)-yl)methoxy)-4-((S)-6-hydroxy-6-methyl-1,4-oxazepan-4-yl)pyrido[4′,3′:4,5]thieno [2,3-d]pyrimidin-8-yl)-1,5,6,7-tetrahydrocyclopenta[f]in-dazole-5-carbonitrile]
IC50 [2]: 193 nM | IC50 [3]: 43.8 nM | IC50 [4]: 125 nM | IC50 [5]: 105 nM

SMILES: [2H]C([2H])([2H])N(C[C@@]1(COc2nc(N3CCOC[C@@](C)(O)C3)c3c(n2)sc2c(-c4c(C5(F)CC5)c(Cl)cc5[nH]ncc45)nccc23)CC1(F)F)C([2H])([2H])[2H] [Ex-231]
IC50 (KRAS-G12D): 2.87 nM | IC50 (KRAS-G12V): 8.77 nM | IC50 [1]: 20.3 nM | IC50 (HRAS): 492 nM | IC50 (KRAS-WT): 8.55 nM | IC50 (AsPC-1 cells): 25.7 nM | IC50 (KRAS-G13D): 15 nM

SMILES: C=CC1CCc2cc3[nH]ncc3c(-c3nccc4c3sc3nc(OC[C@@]56CCCN5C[C@H](F)C6)nc(N5CCOC[C@@](C)(O)C5)c34)c21 (single isomer, unassigned) [Ex-93]
IC50 [2]: 7.03 nM | IC50 [3]: 1.64 nM | IC50 [4]: 3.13 nM | IC50 [5]: 3.7 nM

SMILES: COC1c2c(cc3[nH]ncc3c2-c2nccc3c2sc2nc(OC[C@@]45CCCN4C[C@H](F)C5)nc(N4CCOC[C@@](C)(O)C4)c23)CC1(F)F (stereo partly drawn) [Ex-110, (6S)-4-(8-(6,6-difluoro-5-methoxy-1,5,6,7-tetrahydrocyclopenta[f]in-dazol-4-yl)-2-(((2R,7aS)-2-fluorotetrahydro-1H-pyrrolizin-7a(5H)-yl)methoxy)pyrido[4′,3′:4,5]thi-no[2,3-d]pyrimidin-4-yl)-6-methyl-1,4-oxazepan-6-ol]
IC50 [2]: 57.7 nM | IC50 [3]: 37.7 nM | IC50 [4]: 47.5 nM | IC50 [5]: 43 nM

Second part, the compound after the results:

IC50 (KRAS-G12D): 1.65 nM | IC50 (SW620 cells): 10.5 nM | IC50 (KRAS-G12V): 5.09 nM | IC50 [1]: 38.7 nM | IC50 (HRAS): 5130 nM | IC50 (KRAS-WT): 4.38 nM | IC50 (AsPC-1 cells): 12.3 nM | IC50 (KRAS-G13D): 5.03 nM | IC50 (MKN-1 cells): 24.2 nM
SMILES: C#Cc1cccc2cc3[nH]ncc3c(-c3nccc4c3sc3nc(OC[C@@]56CCCN5C[C@H](F)C6)nc(N5CCOC[C@@](C)(O)C5)c34)c12 [Ex-171, (6S)-4-(8-(5-ethynyl-1H-benzo[f]indazol-4-yl)-2-(((2R,7aS)-2-fluorotetrahydro-1H-pyrrolizin-7a(5H)-yl)methoxy)pyrido[4′,3′:4,5]thieno[2,3-d]pyrimidin-4-yl)-6-methyl-1,4-oxazepan-6-ol]

IC50 [2]: 1920 nM | IC50 [3]: 1470 nM | IC50 [4]: 1350 nM | IC50 [5]: 2370 nM
SMILES: Cc1cc2[nH]nc(I)c2c(-c2nccc3c2sc2nc(OC[C@@]45CCCN4C[C@H](F)C5)nc(N4CCOC[C@@](C)(O)C4)c23)c1C(F)(F)F [Ex-149, (6S)-4-(2-(((2R,7aS)-2-fluorotetrahydro-1H-pyrrolizin-7a(5H)-yl)methoxy)-8-(3-iodo-6-methyl-5-(trifluoromethyl)-1H-indazol-4-yl)pyrido[4′,3′:4,5]thieno[2,3-d]pyrimidin-4-yl)-6-methyl-1,4-oxazepan-6-ol]

IC50 [2]: 55.1 nM | IC50 [3]: 57.6 nM | IC50 [4]: 167 nM | IC50 [5]: 61.3 nM
SMILES: Cc1cc2[nH]ncc2c(-c2nccc3c2sc2nc(OC[C@@]45CCCN4C[C@H](F)C5)nc(N4CCOCC5(CC(=O)N5)C4)c23)c1C(F)(F)F (stereo partly drawn) [Ex-194, 9-(2-(((2R,7aS)-2-fluoro-tetrahydro-1H-pyrrolizin-7a(5/7)-yl)methoxy)-8-(6-methyl-5-(trifluorometh-yl)-1H-indazol-4-yl)pyrido [4′,3′:4,5]thieno[2,3-d]pyrimidin-4-yl)-6-oxa-1,9-diazaspiro[3.6]decan-2-one]

IC50 [2]: 39 nM | IC50 [3]: 21.9 nM | IC50 [4]: 57.3 nM | IC50 [5]: 97.2 nM
SMILES: C[C@@H]1C[C@@H]1c1c(Cl)cc2[nH]ncc2c1-c1nccc2c1sc1nc(OC[C@@]34CCCN3C[C@H](F)C4)nc(N3CCOC[C@@](C)(O)C3)c12 (atropisomer, axis not shown; (aS)) [Ex-68, (S)-4-((R)-8-(6-chloro-5-((1S,2R)-2-methylcyclopropyl)-1H-indazol-4-yl)-2-(((2R,7aS)-2-fluorotetrahydro-1H-pyrrolizin-7a(5H)-yl)methoxy)pyrido[4′,3′:4,5]thi-eno[2,3-d]pyrimidin-4-yl)-6-methyl-1,4-oxazepan-6-ol]

IC50 [2]: 572 nM | IC50 [3]: 393 nM | IC50 [4]: 690 nM | IC50 [5]: 1180 nM
SMILES: C#Cc1n[nH]c2cc(C)c(C(F)(F)F)c(-c3nccc4c3sc3nc(OC[C@@]56CCCN5C[C@H](F)C6)nc(N5CCOC[C@@](C)(O)C5)c34)c12 [Ex-151, (6S)-4-(8-(3-ethynyl-6-methyl-5-(trifluoromethyl)-1H-indazol-4-yl)-2-(((2R,7aS)-2-fluorotetrahydro-1H-pyrrolizin-7a(5H)-yl)methoxy)pyrido[4′,3′:4,5]thieno[2,3-d]pyrimidin-4-yl)-6-methyl-1,4-oxazepan-6-ol]
